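Test compounds were applied to cells in 96-well plates for 48 hours at 5 doses. The concentration for 50% growth inhibition is given as GI50. The concentration for full growth arrest is given as TGI.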 Where a SMILES comes first, the peptide text is derived from it.
Assays:
Assay in all cases: DTP human tumour cell line panel, 48 h
ACHN renal = system: ACHN renal
BT-549 breast = system: BT-549 breast
COLO 205 colon = system: COLO 205 colon
DU-145 prostate = system: DU-145 prostate
HCC-2998 colon = system: HCC-2998 colon
HCT-15 colon = system: HCT-15 colon
HS 578T breast = system: HS 578T breast
K-562 leukemia = system: K-562 leukemia
MALME-3M melanoma = system: MALME-3M melanoma
NCI-H23 lung = system: NCI-H23 lung
PC-3 prostate = system: PC-3 prostate
SK-MEL-5 melanoma = system: SK-MEL-5 melanoma
UACC-62 melanoma = system: UACC-62 melanoma

| SMILES | TGI (ACHN renal) [µM] | TGI (BT-549 breast) [µM] | TGI (COLO 205 colon) [µM] | TGI (DU-145 prostate) [µM] | TGI (HCC-2998 colon) [µM] | TGI (HCT-15 colon) [µM] | TGI (HS 578T breast) [µM] | TGI (K-562 leukemia) [µM] | TGI (MALME-3M melanoma) [µM] | TGI (NCI-H23 lung) [µM] | TGI (PC-3 prostate) [µM] | TGI (SK-MEL-5 melanoma) [µM] | TGI (UACC-62 melanoma) [µM] | GI50 (K-562 leukemia) [µM] |
| --- | --- | --- | --- | --- | --- | --- | --- | --- | --- | --- | --- | --- | --- | --- |
| COc1cc(/C=N/c2nc3cc4sc(/N=C/c5cc(OC)c(OC)c(OC)c5)nc4cc3s2)cc(OC)c1OC | > 100 | > 100 | > 100 | > 100 | > 100 | > 100 | > 100 | > 100 | > 100 | > 100 | > 100 | > 100 | > 100 |  |
| CC1C(=O)CC(c2cccs2)N(N=O)C1c1cccs1 (stereo unspecified) |  |  | > 100 |  | > 100 | > 100 |  | 27.6 | > 100 | > 100 |  | > 100 | > 100 |  |
| N#CC1=C2SCCN2C(=O)C(C#N)C12CCCCC2 (stereo unspecified) | > 100 | > 100 | > 100 | > 100 | > 100 | > 100 |  | > 100 | > 100 | > 100 | > 100 | > 100 | > 100 |  |
| CN(Cc1cn(O)c2nc(=N)nc(N)c-2n1)c1ccc(C(=O)NC23CC4CC(CC(C4)C2)C3)cc1 | > 100 | 79.1 | > 100 | > 100 |  | > 100 | 40.4 | > 100 | > 100 | > 100 | > 100 | > 100 | > 100 |  |
| CN(C)CCNC(=O)c1cc(Cl)cc2cc3ccccc3nc12 |  |  | 1.66 |  | 3.15 | 11.4 |  |  | 14.9 | 3.42 |  | 2.6 | 1.98 |  |
| CCOC(=O)CCC(C(=O)OCC)n1nc2ccc(Nc3c(C)[n+]([O-])c4cc(F)c(OCC)cc4[n+]3[O-])cc2n1 (stereo unspecified) | > 100 | > 100 | > 100 | > 100 | > 100 | > 100 | 90.7 | > 100 | > 100 | > 100 | > 100 | > 100 | > 100 |  |
| NC(=O)C1CCCN1C(=O)C(N)Cc1ccccc1 (stereo not drawn) (H-Phe-Pro-NH2; configuration not given here) | > 100 |  | > 100 | > 100 | > 100 | > 100 |  | > 100 | > 100 |  | > 100 | > 100 | > 100 |  |
| NC(CCOCCP(=O)(O)CCC1C=CC=CC1)C(=O)O (stereo unspecified) | > 100 | > 100 | > 100 | > 100 | > 100 | > 100 | > 100 | > 100 |  | > 100 | > 100 | > 100 | > 100 |  |
| O=C(CSCC(=O)N/N=C/c1ccccc1)N/N=C\c1ccccc1 | > 100 | 18.9 | > 100 | > 100 |  | > 100 | > 100 | > 100 | > 100 | > 100 | > 100 | > 100 | > 100 |  |
| CCCCCCCCCCCCCCCCCCNc1ccn(C2OC(CO)C(OP(=O)(O)OCC(O)COP(=O)(O)OCC3OC(n4cc(F)c(NCCCCCCCCCCCCCCCCCC)nc4=O)CC3O)C2O)c(=O)n1 (stereo unspecified) | > 50 | > 50 | > 50 | > 50 | > 50 | > 50 | > 50 | > 50 | > 50 | > 50 | > 50 | > 50 | > 50 |  |
| CC[C@@]1(O)C(=O)OCc2c1cc1n(c2=O)Cc2cc3ccccc3nc2-1 | 0.191 | 2.6 | 5.18 | 0.0605 | 1.21 | 7.99 | > 100 | 45.6 | 2.11 | 0.0928 | > 100 | 0.181 | 0.0736 | 0.0514 |
| OCC(O)CNc1ncnc2ccccc12 (stereo unspecified) | > 100 | > 100 | > 100 | > 100 | > 100 | > 100 | > 100 | > 100 | > 100 | > 100 | > 100 | > 100 | > 100 |  |
| CCCCCCCCCCCCCC1=C(O)C(=O)C(CC2=C(O)C(=O)C(CCCCCCCCCCCCC)=C(O)C2=O)=C(O)C1=O | > 100 | > 100 | > 100 | > 100 |  |  | > 100 | > 100 | > 100 | > 100 | > 100 | > 100 | > 100 |  |
| CN(CC(=O)O)Cc1c(O)c(Cl)cc(Cl)c1Cl | > 100 | > 100 | > 100 | > 100 |  | > 100 | > 100 |  | > 100 | > 100 | > 100 | > 100 | 77.3 |  |
| OC[C@H]1NC[C@@H](O)[C@@H](O)[C@H]1O |  | > 100 | > 100 |  | > 100 | > 100 | > 100 | > 100 | > 100 | > 100 | > 100 | > 100 | > 100 |  |
| C[C@@H]1C(=O)O[C@H]1[C@H](O)CO | > 100 | > 100 | > 100 | > 100 | > 100 | > 100 |  |  |  | > 100 | > 100 | > 100 | > 100 |  |
| Nc1[nH]c(=S)nc2nc3c(c(-c4ccccc4)c12)CCCC3 | > 100 | > 100 | > 100 | > 100 |  | > 100 | > 100 | > 100 | > 100 | > 100 | > 100 | > 100 | > 100 |  |
| COC(=O)C1=C(C)N2CCSC2(C)C(C(=O)OC)C1c1cccc(Cl)c1 (stereo unspecified) | > 100 |  | 35.4 |  | 40 |  |  | > 100 |  | 73.8 |  | 29 | 32.6 |  |
